Molecular target: T1, purified ITK (Invitrogen PV3875) (Homo sapiens, UniProt Q08881)
T1 construct: purchased Invitrogen PV3875
T1 sequence (Q08881 1-620): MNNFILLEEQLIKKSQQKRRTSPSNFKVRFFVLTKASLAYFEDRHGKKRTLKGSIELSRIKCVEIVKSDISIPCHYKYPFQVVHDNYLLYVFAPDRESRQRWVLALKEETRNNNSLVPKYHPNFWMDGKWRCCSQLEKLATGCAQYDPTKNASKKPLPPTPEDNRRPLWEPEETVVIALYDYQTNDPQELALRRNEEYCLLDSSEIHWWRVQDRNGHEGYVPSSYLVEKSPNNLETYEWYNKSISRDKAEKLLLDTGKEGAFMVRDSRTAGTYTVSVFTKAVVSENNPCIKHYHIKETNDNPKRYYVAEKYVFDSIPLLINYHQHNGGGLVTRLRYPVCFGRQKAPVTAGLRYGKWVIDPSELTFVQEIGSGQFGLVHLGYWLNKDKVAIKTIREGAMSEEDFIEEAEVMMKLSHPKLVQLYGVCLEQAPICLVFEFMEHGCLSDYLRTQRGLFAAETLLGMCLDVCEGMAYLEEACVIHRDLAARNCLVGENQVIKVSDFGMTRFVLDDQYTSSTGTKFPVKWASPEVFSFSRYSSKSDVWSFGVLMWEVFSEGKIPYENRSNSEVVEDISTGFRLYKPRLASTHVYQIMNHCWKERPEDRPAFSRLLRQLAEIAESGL
Experiment: ITK peptide phosphorylation assay (Caliper LabChip or LCMS)
Type: biochemical
Protocol: The ability of purified ITK (Invitrogen PV3875) to catalyze peptide phosphorylation is monitored using a Caliper LabChip 3000 microfluidic unit (Caliper assay) or by liquid chromatography-mass spectrometry (LCMS) using a Waters Acquity system (LCMS assay). […] Reactions are quenched by the addition of 2,2′,2″,2′″-(ethane-1,2-diyldinitrilo)tetraacetic acid (50 mM final). Non-phosphorylated substrate and phosphorylated product peptides are separated and quantified using a Caliper LabChip 3000 instrument. […] Reactions are quenched by the addition of trichloroacetic acid (5% v/v final). Non-phosphorylated substrate and phosphorylated product peptides are separated by ultra performance LC and detected by a coupled triple quadrupole MS device applying multiple reaction monitoring (MRM) for quantification. The area of the MRM-extracted mass signal is used to assess the inhibition by test compounds. Equilibrium dissociation constant (Ki) values for ITK inhibitors are calculated from plots of activity vs. inhibitor concentration using Morrison's quadratic equation that accounts for the potential of tight binding, and by also applying the conversion factor that accounts for competitive inhibition and the concentration of ATP used in the assay relative to its apparent Michaelis constant (Km,app).

[1] = Table 2, Examples 1-140, class symbols
[2] = Table 3, specific values for certain examples

Ki [1]	Ki (Table 1, Examples 141-279)	Ki [2]	Structure (SMILES)
1 to 100 nM	–	–	Cc1n[nH]c(C)c1CCn1cc(NC(=O)c2n[nH]c3cc(-c4cn[nH]c4)ccc23)cn1 [Example 13, 6-(1H-Pyrazol-4-yl)-1H-indazole-3-carboxylic acid {1-[2-(3,5-dimethyl-1H-pyrazol-4-yl)-ethyl]-1H-pyrazol-4-yl}-amide]
–	2.43 nM	–	O=C(Nc1cnn(CC2CCCCC2)c1)c1n[nH]c2cc(-c3cn[nH]c3)ccc12 [Example 243, N-[1-(cyclohexylmeth-yl)pyrazol-4-yl]-6-(1H-pyrazol-4-yl)-1H-indazole-3-carboxamide]
–	51 nM	–	COc1cncc(-c2ccc3c(C(=O)Nc4cnn(C(CN(C)C)c5cccnc5)c4)n[nH]c3c2)c1 (stereo not shown) [Example 233, N-[1-[2-(dimethylamino)-1-(3-pyridyl)ethyl]py-razol-4-yl]-6-(5-methoxy-3-pyridyl)-1H-indazole-3-carboxamide]
–	76.9 nM	–	CN(C)CCC(c1ccccc1)n1cc(NC(=O)c2n[nH]c3ccccc23)cn1 (stereo not shown) [Example 267, N-[1-[3-(dimethylamino)-1-phenyl-propyl]pyrazol-4-yl]-1H-indazole-3-carboxamide]
1 to 100 nM	–	–	Nc1cc(Cn2cc(NC(=O)c3n[nH]c4cc(-c5cn[nH]c5)ccc34)cn2)ccn1 [Example 28, 6-(1H-Pyrazol-4-yl)-1H-indazole-3-carboxylic acid [1-(2-amino-pyridin-4-ylmethyl)-1H-pyrazol-4-yl]-amide]
0.01 to 1 nM	–	–	CN(C)CC(c1ccccc1)n1cc(NC(=O)c2n[nH]c3cc(-c4cn[nH]c4)ccc23)cn1 (stereo not shown) [Example 135, N-(1-(2-(dimethylamino)-1-phenylethyl)-1H-pyrazol-4-yl)-6-(1H-pyrazol-4-yl)-1H-indazole-3-carboxamide]
–	66.2 nM	–	O=C(Nc1cnn(Cc2ccccc2)c1)c1n[nH]c2cc(-c3cnc4c(c3)CCCO4)ccc12 [Example 209, N-(1-benzylpyrazol-4-yl)-6-(3,4-dihydro-2H-pyrano[2,3-b]pyridin-6-yl)-1H-indazole-3-carboxamide]
–	10.2 nM	–	CC(C)n1cc(NC(=O)c2n[nH]c3cc(-c4cn[nH]c4)ccc23)cn1 [Example 192, N-(1-isopropylpyrazol-4-yl)-6-(1H-pyrazol-4-yl)-1H-indazole-3-carboxamide]
1 to 100 nM	–	–	CC[C@@H](c1ccccc1)n1cc(NC(=O)c2n[nH]c3cc(-c4ccc(N)nc4)ccc23)cn1 [Example 136, (S)-6-(6-aminopyridin-3-yl)-N-(1-(1-phenylpropyl)-1H-pyrazol-4-yl)-1H-indazole-3-carboxamide]
–	2400 nM	–	CN1CC(c2ccc3c(C(=O)Nc4cnn(Cc5cccc(C#N)c5)c4)n[nH]c3c2)C1 [Example 191, N-[1-[(3-cyanophenyl)meth-yl]pyrazol-4-yl]-6-(1-methylazetidin-3-yl)-1H-indazole-3-carboxamide]
1 to 100 nM	–	6.9 nM	O=C(Nc1cnn(Cc2cc(-c3ccccc3)on2)c1)c1n[nH]c2cc(-c3cn[nH]c3)ccc12 [Example 16, 6-(1H-Pyrazol-4-yl)-1H-indazole-3-carboxylic acid [1-(5-phenyl-isoxazol-3-ylmethyl)-1H-pyrazol-4-yl]-amide]
> 100 nM	–	1300 nM	COc1cccc2[nH]nc(C(=O)Nc3cnn(Cc4cccc(C#N)c4)c3)c12 [Example 4, N-(1-(3-cyanobenzyl)-1H-pyrazol-4-yl)-4-methoxy-1H-indazole-3-carboxamide]
1 to 100 nM	–	–	O=C(Nc1cnn(Cc2cccc(CNC3CCC3)c2)c1)c1n[nH]c2ccccc12 [Example 94, N-(1-(3-((cyclobutylamino)methyl)benzyl)-1H-pyrazol-4-yl)-1H-indazole-3-carboxamide]
–	5.98 nM	–	CN(C)CCC(c1ccccc1)n1cc(NC(=O)c2n[nH]c3ccccc23)cn1 (stereo not shown) [Example 268, N-[1-[3-(dimethylamino)-1-phenyl-propyl]pyrazol-4-yl]-1H-indazole-3-carboxamide]
1 to 100 nM	–	37.7 nM	COc1ccc(Cn2cc(NC(=O)c3n[nH]c4ccccc34)cn2)cc1 [Example 66, N-(1-(4-methoxybenzyl)-1H-pyrazol-4-yl)-1H-indazole-3-carboxamide]
–	1.07 nM	–	O=C(Nc1cnn(Cc2ccccc2)c1)c1n[nH]c2cc(-c3cn[nH]c3)ccc12 [Example 181, N-(1-benzylpyrazol-4-yl)-6-(1H-pyrazol-4-yl)-1H-indazole-3-carboxamide]

Ki [1]	Ki (Table 1, Examples 141-279)	Ki [2]	Structure (SMILES)
–	1.33 nM	–	CN1CCC(Nc2ccc3[nH]nc(C(=O)Nc4cnn(Cc5cccc(C#N)c5)c4)c3c2)CC1 [Example 184, N-[1-[(3-cyanophenyl)meth-yl]pyrazol-4-yl]-5-[(1-methyl-4-piperidyl)amino]-1H-indazole-3-carboxamide]
0.01 to 1 nM	–	–	O=C(Nc1cnn(Cc2cccc(-c3nn[nH]n3)c2)c1)c1n[nH]c2cc(-c3cn[nH]c3)ccc12 [Example 48, 6-(1H-Pyrazol-4-yl)-1H-indazole-3-carboxylic acid {1-[3-(2H-tetrazol-5-yl)-benzyl]-1H-pyrazol-4-yl}-amide]
1 to 100 nM	–	–	Nc1cc(Cn2cc(NC(=O)c3n[nH]c4cc(-c5cccnc5)ccc34)cn2)ccn1 [Example 32, N-[1-[(2-amino-4-pyridyl)methyl]pyrazol-4-yl]-6-(3-pyridyl)-1H-indazole-3-carboxamide]
–	183 nM	–	Cn1nc(C(F)(F)F)cc1-c1ccc2c(C(=O)Nc3cnn(Cc4cccc(C#N)c4)c3)n[nH]c2c1 [Example 198, N-[1-[(3-cyanophenyl)meth-yl]pyrazol-4-yl]-6-[2-methyl-5-(trifluorometh-yl)pyrazol-3-yl]-1H-indazole-3-carboxamide]
–	6.19 nM	–	O=C(Nc1cnn([C@H](CO)c2cscn2)c1)c1n[nH]c2cc(-c3cn[nH]c3)ccc12 [Example 178, N-[1-[(1S)-2-hydroxy-1-thiazol-4-yl-ethyl]pyrazol-4-yl]-6-(1H-pyrazol-4-yl)-1H-indazole-3-carboxamide]
1 to 100 nM	–	–	N#Cc1cncc(-c2ccc3c(C(=O)Nc4cnn(Cc5cscn5)c4)n[nH]c3c2)c1 [Example 44, 6-(5-Cyano-pyridin-3-yl)-1H-indazole-3-carboxylic acid (1-thiazol-4-ylmethyl-1H-pyrazol-4-yl)-amide]
0.01 to 1 nM	–	–	N#Cc1ccc(Cn2cc(NC(=O)c3n[nH]c4cc(-c5cn[nH]c5)ccc34)cn2)s1 [Example 27, 6-(1H-Pyrazol-4-yl)-1H-indazole-3-carboxylic acid [1-(5-cyano-thiophen-2-ylmethyl)-1H-pyrazol-4-yl]-amide]
–	51.4 nM	–	COc1cncc(-c2ccc3c(C(=O)Nc4cnn(Cc5ccccn5)c4)n[nH]c3c2)c1 [Example 221, 6-(5-methoxy-3-pyridyl)-N-[1-(2-pyridylmethyl)py-razol-4-yl]-1H-indazole-3-carboxamide]
1 to 100 nM	–	–	O=C(Nc1cnn(Cc2cccc(C(F)(F)F)c2)c1)c1n[nH]c2ccccc12 [Example 59, N-(1-(3-(trifluoromethyl)benzyl)-1H-pyrazol-4-yl)-1H-indazole-3-carboxamide]
–	6.92 nM	–	CN(CCC(c1ccccc1)n1cc(NC(=O)c2n[nH]c3ccccc23)cn1)S(C)(=O)=O (stereo not shown) [Example 271]
–	759 nM	–	O=C(Nc1cnn(C2CCOc3ccccc32)c1)c1n[nH]c2cc(-c3cn[nH]c3)ccc12 (stereo not shown) [Example 185, N-(1-chroman-4-ylpyrazol-4-yl)-6-(1H-pyrazol-4-yl)-1H-indazole-3-carboxamide]
–	1.15 nM	–	O=C(Nc1cnn(Cc2cccc(N3CCC(O)C3)c2)c1)c1n[nH]c2cc(-c3cn[nH]c3)ccc12 (stereo not shown) [Example 161, N-[1-[[3-(3-hydroxypyrrolidin-1-yl)phenyl]meth-yl]pyrazol-4-yl]-6-(1H-pyrazol-4-yl)-1H-indazole-3-carboxamide]
1 to 100 nM	–	–	O=C(Nc1cnn(Cc2cccc(CNCC(F)F)c2)c1)c1n[nH]c2ccccc12 [Example 92, N-(1-(3-((2,2-difluoroethylamino)methyl)benzyl)-1H-pyrazol-4-yl)-1H-indazole-3-carboxamide]
1 to 100 nM	–	–	O=C(Nc1cnn(Cc2cccc(C(=O)N3CCC(O)CC3)c2)c1)c1n[nH]c2cc(-c3cn[nH]c3)ccc12 [Example 22, 6-(1H-Pyrazol-4-yl)-1H-indazole-3-carboxylic acid {1-[3-(4-hydroxy-1-piperidine-1-carbonyl)-benzyl]-1H-pyrazol-4-yl}amide]
–	2.76 nM	–	O=C(Nc1cnn(CC2CN(Cc3ccccc3)CCO2)c1)c1n[nH]c2cc(-c3cn[nH]c3)ccc12 (stereo not shown) [Example 259, N-[1-[(4-benzylmorpholin-2-yl)methyl]pyrazol-4-yl]-6-(1H-pyrazol-4-yl)-1H-indazole-3-carboxamide]
